In patent US20040176310A1, “Use of extracts and preparations from iris plants and tectorigenin as medicaments” (priority 2001, published 2004):

Experiments:
prostate = prostate regression / testosterone-induced prostate growth in castrated rats; type: in vivo, rat
Source text: (§1) The prostate regression induced by castration could be antagonized by testosterone in experiments with rats.

[1] = test system: Nerve Growth Factor (NGF); test: gene expression of Nerve Growth Factor (bladder); type: in vivo, rat
Source text: Bladder tonus is largely influenced by nerve cells located in the bladder wall and other vegetative nerve cells. The “Nerve Growth Factor” (NGF) is an indicator for the local activity of the nerve cells.

IGF1 = IGF1 gene expression in the prostate of castrated male rats; type: in vivo, rat
Source text: as §1

[2] = test system: estrogen receptor of alpha-subtype; test: gene expression of estrogen receptor alpha-subtype in the prostate of male castrated rat; type: in vivo
estrogen receptor-alpha = test: gene expression of estrogen receptor-alpha in the bladder of castrated rats; type: in vivo, rat
estrogen receptor-beta = test: gene expression of estrogen receptor-beta in the prostate of male castrated rat; type: in vivo

C[C@]12CC[C@H]3[C@@H](CCC4=CC(=O)CC[C@@]43C)[C@@H]1CC[C@@H]2O [testosterone]
prostate regression induced by castration (prostate): antagonized | gene expression of Nerve Growth Factor (NGF) [1]: observed under neither estradiol nor testosterone | gene expression of the growth factor IGF1 (IGF1): regulated up

C[C@]12CC[C@@H]3c4ccc(O)cc4CC[C@H]3[C@@H]1CC[C@@H]2O [estradiol, 17β-estradiol]
gene expression of the estrogen receptor of alpha-subtype [2]: significantly inhibit | gene expression of Nerve Growth Factor (NGF) [1]: observed under neither estradiol nor testosterone | gene expression of the estrogen receptor-alpha (estrogen receptor-alpha): regulate down | gene expression of the estrogen receptor-beta (estrogen receptor-beta): without having an effect
